“And” between values parts separate entries of the source, which are not always exact repeats. Equal values may be shown once.
Experiments:
[1] = biological target: T1, ALDH1A2 (Homo sapiens, UniProt O94788); test: Kd evaluation by fluorescence emission assay; assay type: binding; details: probe 10 μM, ALDH1A2 100 to 1.1719 μM
T1 construct: E. coli BL21 (DE3) were transformed with the full-length expression vector of each isoform; His-tag; made in house; host or cells: E. coli BL21 (DE3)
T1 sequence (O94788 1-518): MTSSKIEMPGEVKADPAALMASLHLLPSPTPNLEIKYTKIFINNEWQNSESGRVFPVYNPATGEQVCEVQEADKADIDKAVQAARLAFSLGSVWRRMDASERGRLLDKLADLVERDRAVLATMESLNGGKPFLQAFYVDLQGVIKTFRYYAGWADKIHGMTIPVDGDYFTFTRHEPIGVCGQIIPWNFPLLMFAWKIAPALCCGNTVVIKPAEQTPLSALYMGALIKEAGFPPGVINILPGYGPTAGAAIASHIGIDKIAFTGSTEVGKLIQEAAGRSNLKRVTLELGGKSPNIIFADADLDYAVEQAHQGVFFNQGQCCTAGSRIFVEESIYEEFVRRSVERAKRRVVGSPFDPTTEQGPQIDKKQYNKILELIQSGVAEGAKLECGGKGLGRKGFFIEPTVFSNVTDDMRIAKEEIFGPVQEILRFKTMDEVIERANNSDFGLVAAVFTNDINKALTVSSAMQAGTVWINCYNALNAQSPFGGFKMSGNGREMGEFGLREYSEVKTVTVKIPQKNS
Description: To evaluate the Kd constant between the two probes and the isoenzymes ALDH1A1, ALDH1A2 and ALDH1A3A we performed a fluorescence emission assay. We used a Tecan Spark with Greiner Bio-One 96-UV-Transparent Microplates. A single reaction was performed in a total volume of 100 μl per well containing 20 mM Tris HCl pH 8.0, 1 mM β-mercaptoethanol, 150 mM KCl, 500 μM NAD^+ and 10 μM fluorescent probe with a 5% DMSO final concentration, in the presence of different ALDH1As concentrations, from 100 μM to 1.1719 μM. Each reaction mix was preincubated for 10 min at 25 °C before the analysis. The obtained raw data were analyzed using GraphPad to calculate Kd values.

[2] = tested on: patient-derived glioma cell 3054; test: Fluorescent microscopy of probe in cells; assay type: cell-based, human; details: 10 µM
[3] = biological target: T1, ALDH1A2; test: Enzymatic inhibition assay with acetaldehyde; assay type: biochemical; details: up to highest probe concentration
Description: (§1) Initially, the inhibitory activities of our fluorescent probes were screened at a fixed concentration of 50 μM using a Tecan Sunrise 96 Multiplate Reader with Greiner Bio-One 96-UV-Transparent Microplates. The analysis was performed in triplicate in a total volume of 100 μl per well containing 20 mM Tris HCl pH 8.0, 1 mM β-mercaptoethanol, 150 mM KCl, 500 μM NAD^+, […], 2.8 μM hALDH1A and 20 mM acetaldehyde. Afterwards, the inhibitory potency of the fluorescent probes was further investigated, evaluating the IC50 parameter. The enzymatic inhibition assays were performed in triplicate in a total volume of 100 μl per well containing 20 mM Tris HCl pH 8.0, 1 mM β-mercaptoethanol, 150 mM KCl, 500 μM NAD^+, 2.8 μM hALDH1A and 20 mM acetaldehyde in the presence of different probe concentrations, from 200 μM to 1.5625 μM. The DMSO final concentration allowed was up to 15%. Only for ALDH1A3 in complex with Probe 10, the Ki affinity parameter was calculated by performing the analysis in triplicate in a total volume of 100 μl per well containing 20 mM Tris HCl pH 8.0, 1 mM β-mercaptoethanol, 150 mM KCl, 500 μM NAD^+ and 2.8 μM ALDH1As. Due to chemical nature of Probe 10 and Probe 11, we set up the enzymatic assay assuming a competitive inhibition using different compounds concentration, from 200 μM to 1 μM, and different acetaldehyde concentrations, from 20 mM to 2.5 mM. Each reaction mix was preincubated for 10 min at 25 °C before the analysis. The catalytic activity was measured by monitoring the absorbance at 340 nm (εNADH = 6220 M^−^1 cm^−1) for 30 min at 25 °C and the inhibitory parameters were calculated by processing the raw data on SigmaPlot[53].

[4] = biological target: T2, ALDH1A1 (Homo sapiens, UniProt P00352); test: Enzymatic inhibition assay with acetaldehyde; assay type: biochemical; details: up to highest probe concentration
T2 construct: E. coli BL21 (DE3) were transformed with the full-length expression vector of each isoform; His-tag; made in house; host or cells: E. coli BL21 (DE3)
T2 sequence (P00352 1-501): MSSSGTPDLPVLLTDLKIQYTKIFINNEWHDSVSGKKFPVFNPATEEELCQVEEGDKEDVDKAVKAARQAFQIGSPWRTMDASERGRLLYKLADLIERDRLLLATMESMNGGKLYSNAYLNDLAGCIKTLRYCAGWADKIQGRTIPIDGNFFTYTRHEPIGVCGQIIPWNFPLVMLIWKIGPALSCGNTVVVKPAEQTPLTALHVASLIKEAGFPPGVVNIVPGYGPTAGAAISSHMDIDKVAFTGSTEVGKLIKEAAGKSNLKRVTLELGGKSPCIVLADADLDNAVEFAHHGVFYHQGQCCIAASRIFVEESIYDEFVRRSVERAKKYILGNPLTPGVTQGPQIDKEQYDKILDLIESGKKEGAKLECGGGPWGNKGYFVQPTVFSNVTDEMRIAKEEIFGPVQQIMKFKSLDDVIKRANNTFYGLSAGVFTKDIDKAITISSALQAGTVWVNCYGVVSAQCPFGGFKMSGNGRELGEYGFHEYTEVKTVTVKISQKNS
Description: as §1

[5] = tested on: U87MG, 3054, 3060, HEK293T, 4T1, human fetal astrocytes; test: Cell viability (MTT assay), all cell lines of Fig. 6a; assay type: cell-based; details: 10 µM, 72 h
Description: In total, 10 × 10^5 U87MG human glioblastoma, patient-derived glioma cells 3054 and 3060, HEK293T human embryonic kidney, 4T1 murine mammary carcinoma, human fetal astrocytes cell lines were plated in their respective medium and treated for 72 h with our fluorescent probe 10 and 11, solubilized in DMSO in a final concentration of […]. We treated controls with DMSO in the same final concentration and we compared the viability of each treatment to controls. The viability of cells was measured using the 3-(4,5-dimethylthiazol-2-yl)-2,5-diphenyltetrazolium assay (MTT assay)[23].

| Structure (SMILES) | Kd [1] [µM] | fluorescence in cells ([2]; 2 h) | If ROI ([2]; 3054, 2 h (Fig. 5g)) | inhibition of ALDH1A2 [3] | inhibition of ALDH1A1 [4] | cell mortality [5] |
| --- | --- | --- | --- | --- | --- | --- |
| COc1cc(/C=C/C(O)=C/C(=O)/C=C/c2ccc(OCc3cn(CCOc4ccc(C=O)cc4)nn3)c(OC)c2)ccc1O [Probe 10] | 36.9 | can determine fluorescence | 223.52 a.u. and 222.87 a.u. and 254.268 a.u. and 245.65 a.u. and 230.548 a.u. | Neither of the two other isozymes were inhibited | Neither of the two other isozymes were inhibited | unable to induce cell mortality |
| CCOC(=O)Cn1cc(COc2ccc(/C=C/C(=O)/C=C(O)/C=C/c3ccc(O)c(OC)c3)cc2OC)nn1 [Probe 11] | 125 | – | – | no inhibitory effect | no inhibitory effect | – |
